These results are taken from patent US10308689B2, “Dengue virus (DV) polypeptide sequences, T cell epitopes and methods and uses thereof” (LA JOLLA INSTITUTE FOR ALLERGY AND IMMUNOLOGY, priority 2010, dated 2019).

In the test the test system is DENV2 (S221). Put plainly: Peptide immunization and DENV2 challenge, DENV2 RNA by real-time RT-PCR. The test is classed as in vivo, mouse. The note with it: immunization with the four H-2^b peptides together; day 4 after S221 infection. As for the experimental part:
Mice were euthanized by isoflurane inhalation and blood was collected via cardiac puncture. Serum was separated from whole blood by centrifugation in serum separator tubes (Starsted) Small intestines were put into PBS, flushed, filleted, chopped into small pieces, and put into RNAlater (Qiagen). Other organs were immediately placed into RNAlater and all organs were subsequently homogenized for 3 min in 1 ml tissue lysis buffer (Qiagen Buffer RLT) using a Mini-Beadbeater-8 (BioSpec Products) or QiagenTissueLyser Immediately after homogenization, all tissues were centrifuged (5 min, 4° C., 16,000×g) to pellet debris, and RNA was isolated using the RNeasy Mini Kit (Qiagen). Serum RNA was isolated using the QIAamp Viral RNA Mini Kit (Qiagen). After elution, viral RNA was stored at −80° C. Quantitative RT-PCR was performed according to a published protocol (Houng et al., J Virol Methods 86:1-11 (2000)), except a MyiQ Single-Color Real-Time PCR Detection System (Bio-Rad) with One-Step qRT-PCR Kit (Quanta BioSciences) were used. […] After transcription, DNA was digested with DNase I, and RNA was purified using the RNeasy Mini Kit and quantified by spectrophotometry. To control for RNA quality and quantity when measuring DENV in tissues, the level of 18S rRNA was measured using 18S primers described previously (Lacher, et al., Cancer Res 66:1648 (2006)) in parallel real-time RT-PCR reactions. […]

Regarding “NS2A8-15: DENV-2 derived H-2^b restricted dominant CD8+ T cell epitope (FSLGVLGM)”, the “lower serum DENV RNA levels, peptide-immunized vs mock-immunized mice” value is reported as 350 fold.
